Reference: ChEMBL document CHEMBL4265976, “Synthesis, molecular docking and inhibition studies of novel 3-N-aryl substituted-2-heteroarylchromones targeting microtubule affinity regulating kinase 4 inhibitors” (Eur J Med Chem, 2018)
Calls of active or inactive are those of the source. The rule behind the calls is not given here.

Legend:
[1] = target: T1, MAP/microtubule affinity-regulating kinase 4 (Homo sapiens, UniProt Q96L34); assay: Inhibition of MARK4 (unknown origin) (59 to 368 residues) expressed in Escherichia coli M15 in presence of [gamma-32P]ATP by ATPase assay
T1 sequence (Q96L34 whole entry): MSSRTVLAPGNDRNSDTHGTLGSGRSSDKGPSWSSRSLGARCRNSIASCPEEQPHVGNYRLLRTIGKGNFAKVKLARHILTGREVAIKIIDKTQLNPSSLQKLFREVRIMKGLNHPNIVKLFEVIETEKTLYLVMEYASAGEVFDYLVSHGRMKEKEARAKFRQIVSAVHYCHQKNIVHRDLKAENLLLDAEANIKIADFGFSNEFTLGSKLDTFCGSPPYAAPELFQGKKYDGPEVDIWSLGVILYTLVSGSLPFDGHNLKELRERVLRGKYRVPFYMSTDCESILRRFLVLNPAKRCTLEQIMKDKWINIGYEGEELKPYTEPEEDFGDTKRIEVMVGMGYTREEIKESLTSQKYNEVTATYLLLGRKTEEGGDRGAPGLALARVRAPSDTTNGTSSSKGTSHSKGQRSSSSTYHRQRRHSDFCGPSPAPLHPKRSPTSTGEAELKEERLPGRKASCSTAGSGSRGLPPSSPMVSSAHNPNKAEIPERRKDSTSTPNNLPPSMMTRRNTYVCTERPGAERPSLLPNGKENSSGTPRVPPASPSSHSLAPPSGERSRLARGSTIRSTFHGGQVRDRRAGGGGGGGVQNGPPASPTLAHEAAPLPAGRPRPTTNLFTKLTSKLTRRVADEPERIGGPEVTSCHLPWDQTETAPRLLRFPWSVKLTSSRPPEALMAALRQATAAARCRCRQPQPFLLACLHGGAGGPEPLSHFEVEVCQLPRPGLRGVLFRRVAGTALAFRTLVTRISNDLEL

[2] = target: T2, MAP/microtubule affinity-regulating kinase 4 (Homo sapiens) (UniProt Q96L34); assay: Inhibition of MARK4 (unknown origin) (59 to 368 residues) expressed in Escherichia coli M15 3 to 10 uM by dot blot assay
T2 sequence (whole entry): T1 sequence (Q96L34 whole entry)

[3] = target: T2, MAP/microtubule affinity-regulating kinase 4 (Homo sapiens); assay: Binding affinity to MARK4 (unknown origin) (59 to 368 residues) expressed in Escherichia coli M15 up to 10 uM by fluorescence based Stern-Volmer plot analysis
MCF7 [4] = assay: Antiproliferative activity against human MCF7 cells after 48 hrs by MTT assay; type: functional, cell-based; conditions: for IC50: MCF7, 48 h
HepG2 [5] = assay: Antiproliferative activity against human HepG2 cells after 48 hrs by MTT assay; type: functional, cell-based; conditions: for IC50: HepG2, 48 h
[6] = Cytotoxicity against human HEK293 cells assessed as cell viability up to 200 uM after 72 hrs by MTT assay relative to control; type: cell-based; conditions: read-out: Activity
MCF7 [7] = assay: Induction of apoptosis in human MCF7 cells assessed as viable cells at IC50 after 24 to 48 hrs by Annexin V-FITC staining-based flow cytometric analysis relative to control; type: functional
MCF7 [8] = assay: Induction of apoptosis in human MCF7 cells assessed as early apoptotic cells at IC50 after 24 to 48 hrs by Annexin V-FITC staining-based flow cytometric analysis (reference value: 0%); type: functional
MCF7 [9] = assay: Induction of apoptosis in human MCF7 cells assessed as late apoptotic cells at IC50 after 24 to 48 hrs by Annexin V-FITC staining-based flow cytometric analysis (reference value: 0%); type: functional
MCF7 [10] = assay: Induction of apoptosis in human MCF7 cells assessed as necrotic cells at IC50 after 24 to 48 hrs by Annexin V-FITC staining-based flow cytometric analysis (reference value: 0%); type: functional
HepG2 [11] = assay: Induction of apoptosis in human HepG2 cells assessed as viable cells at IC50 after 24 to 48 hrs by Annexin V-FITC staining-based flow cytometric analysis relative to control; type: functional
HepG2 [12] = assay: Induction of apoptosis in human HepG2 cells assessed as early apoptotic cells at IC50 after 24 to 48 hrs by Annexin V-FITC staining-based flow cytometric analysis (reference value: 0%); type: functional
HepG2 [13] = assay: Induction of apoptosis in human HepG2 cells assessed as late apoptotic cells at IC50 after 24 to 48 hrs by Annexin V-FITC staining-based flow cytometric analysis (reference value: 0%); type: functional
HepG2 [14] = assay: Induction of apoptosis in human HepG2 cells assessed as necrotic cells at IC50 after 24 to 48 hrs by Annexin V-FITC staining-based flow cytometric analysis (reference value: 0%); type: functional
[15] = target: T2, MAP/microtubule affinity-regulating kinase 4 (Homo sapiens); assay: Inhibition of MARK4-mediated tau phosphorylation in human MCF7 cells at IC50 after 24 hrs by flow cytometric analysis; type: cell-based
MCF7 [16] = assay: Induction of ROS generation in human MCF7 cells at IC50 after 5 to 6 hrs by DCFDA staining based flow cytometric analysis; type: functional, cell-based

IC50 [1] [µM]	inhibition [2]	Activity [3]	IC50 (MCF7 [4]) [µM]	IC50 (HepG2 [5]) [µM]	inhibition [15]	SMILES	Activity (MCF7 [4])	Activity (HepG2 [5])	viability at 72 h [6] [%]	Activity (MCF7 [7]) [%]	Activity (MCF7 [8]) [%]	Activity (MCF7 [9]) [%]	Activity (MCF7 [10]) [%]	Activity (HepG2 [11]) [%]	Activity (HepG2 [12]) [%]	Activity (HepG2 [13]) [%]	Activity (HepG2 [14]) [%]	Activity (MCF7 [16])
5.56	Active	Active	16.2	19.1	Active	COc1ccc(Nc2c(-c3ccco3)oc3ccccc3c2=O)cc1	Dose-dependent effect	Dose-dependent effect	85	80.1	18.7	1.21	0.027	87	5.13	4.79	3.12	Active
2.12	Active	Active	3.22	6.45	Active	O=c1c(Nc2ccc([N+](=O)[O-])cc2)c(-c2ccco2)oc2c(Cl)cc(Cl)cc12	Dose-dependent effect	Dose-dependent effect	85	55.8	26.5	15.9	1.72	80.6	8.53	6.54	4.33	Active
1.98	Active	Active	4.32	5.22	Active	O=c1c(Nc2ccc(I)cc2)c(-c2ccco2)oc2c(Cl)cc(Cl)cc12	Dose-dependent effect	Dose-dependent effect	85	70.1	27.9	1.9	0.15	82.3	15.2	2.56	0.013	Active
